Assay results taken from patent US10143668B2, “Hydroxy-substituted amino and ammonium derivatives and their medical use” (GRI BIO, INC., priority 2011, dated 2018).

Assays:
[1] = tested on: Akt phosphorylation on Ser473; assay: Inhibition of activation of Akt kinase (phospho-Akt Ser473 assay in RBL-2H3 cells); type: cell-based, rat; settings: IgE and antigen for 15 min
Excerpt: The mast cell degranulation assay using the RBL-2H3 cell line (see example 5) was also used to determine the status of the PI3K/Akt axis. Activation of PI3K leads to production of PIP3 on the cytosolic side of the lipid bilayer. Akt is recruited to the PIP3 domain and subsequently activated by phosphorylation on residues Ser473 and Thr308. (Franke et al., Cell 81:727-736, (1995)). Once recruited to the membrane, it is phosphorylated and activated by other kinases (Hemmings, Science 275:628-630 (1997); Hemmings, Science 276:534 (1997); Downward, Science 279:673-674 (1998); Alessi et al., EMBO J. 15:6541-6551 (1996)). Western blotting of the phosphorylated Ser473 residue on Akt (phospho-Akt Ser473) is widely used to assess the level of activation of the PI3K/Akt axis.
All buffers and solutions used for the phosphor-Akt Ser473 assay were from Meso Scale Discovery. Tris Lysis Buffer consisted of 150 mM NaCl, 20 mM Tris, pH 7.5, 1 mM EDTA, 1 mM EGTA and 1% Triton-X-100. Complete Tris Lysis Buffer was prepared prior to use by addition of protease inhibitor, phosphatase inhibitors and PMSF. […] Read Buffer T was used according to manufacturer's instructions. […]
Protein assay: protein concentration was determined using the BCA (bicinchoninic acid) Protein Assay kit according to the manufacturer's instructions. […] Plates were cooled to room temperature for 5 min and absorbance at 562 nm was measured in a multi-mode plate reader. Protein concentrations were calculated using FlexStation 3 software (SoftMax Pro version 5.3). Protein concentration of lysates was determined from a standard curve (BSA) using a linear curve fit.
Phosphoprotein assay: protein phosphorylation was determined using the MULTI-SPOT® Assay System (Mesa Scale Discovery), providing simultaneous detection of phosphorylated and total proteins. […] The optimal amount of protein was determined at 5 μg lysate per well for ERK½ and 10 μg/well for phospho-Akt Ser473. […] After a final four washes with Tris Wash Buffer 150 μl/well, Read Buffer T was added, and plates read on a SECTOR Imager 6000 plate reader. […]

RBL-2H3 cells = assay: Maximum tolerated concentration (cytotoxicity by lactate dehydrogenase release); type: cell-based, rat
Excerpt: The safety index (SI) of a test compound is the ratio between the maximum tolerated concentration and the IC50 and is used as a measure of the relative safety of the test compound.

CCCCCCCCCCCCCC[N+](C)(C)CC(=O)N(C)C[C@H](O)[C@@H](O)[C@H](O)[C@H](O)CO [Compound 1a, N-(2-(Dimethyl(tetradecyl)ammonio)acetyl)-N-methyl-D-glucamine chloride]
Level of phospho-Akt Ser473 ([1]; 1 μM): 81.8 ± 42.5 % positive control | Level of phospho-Akt Ser473 ([1]; 5 μM): 22.6 ± 15.7 % positive control | Level of phospho-Akt Ser473 ([1]; 25 μM): 6.8 ± 1.8 % positive control | MTC (maximum tolerated concentration) (RBL-2H3 cells; highest concentration not causing cytotoxicity (LDH release)): 150 µM | SI (safety index) (RBL-2H3 cells; ratio between MTC and IC50): 39.5
